Results: publication PMC4283194 (Neuroimage, 2014)
Like-named read-outs stand apart in the source and are kept apart here.

Legend:
[1] = system: CB1 receptor; set-up: method as in Terry et al., 2008, Terry et al., 2010b, Yasuno et al., 2008; conditions: monkey brain, ref Terry et al., 2008, Terry et al., 2010b, Yasuno et al.; cited from earlier work
[2] = target: T1, CB1 receptor (Homo sapiens, UniProt P21554); assay: [11C]MePPEP PET, VT by rank shaping regularised spectral analysis (RS-SA); assay type: in vivo; set-up: VT median: unit not given beside the values
T1 construct: assess the stability of CB1-receptor quantification in humans in vivo; from tissue; host or cells: living human brain (healthy volunteers), in vivo PET
Protocol: (§1) Continuous and intermittent blood samples were collected to allow the subsequent generation of metabolite-corrected arterial plasma time–activity curves (TACs) ([Hammers et al., 2008]). During the first 15 min blood was withdrawn continuously at a rate of 300 ml/h and radioactivity measured in a BGO detection system ([Jones et al., 1994]). To quantify plasma and whole blood radioactivity, as well as to allow quantification of the parent fraction of the radiotracer, intermittent discrete (10 ml) samples were taken with heparinised syringes before the scan (baseline) and at the following time points after scan start: 3, 5, 10, 15, 20, 30, and 50 min. At 75 min, a larger 17 ml sample was taken to allow quantification despite radioactivity decay. […] Continuous plasma input functions (IF) were derived by cross-calibration and combination of the continuous and discrete data, multiplication with the fitted plasma-over-blood ratio, and correction for parent radiotracer fraction, as described in detail in previous studies ([Hammers et al., 2007a], [Jones et al., 1994]).
VT values were generated directly from dynamic data sampled using ROIs with rank shaping (RS; orthogonalized-functional-base) regularisation of SA ([Turkheimer et al., 2003]) using in-house “Clickfit” software. As previously described by [Turkheimer et al. (2003)], we used the metabolite-corrected IF, a logarithmically spaced basis, an exponential range of bases extending to − 3.2, and the regional tissue TAC. TACs were weighted according to ([Gunn et al., 1998]):(3) Wi=Li/Tiforframei=1,2,3…35 [wi — weight for frame i; Li — length of frame i (seconds); and Ti — rate of true coincidences (per second)].
The VT for each ROI was then obtained as the plateau of the VT(R), where R is the expected signal-to noise ratio that is used as the regularisation parameter (R) in rank-shaping (Fig. 2; ([Turkheimer et al., 2003])).

[3] = target: T1, CB1 receptor; assay: [11C]MePPEP PET, VT by reversible two-compartment model with variable blood volume (2kbv); assay type: in vivo
Protocol: as §1
In this model, three microparameters are derived: K1 is the influx of the ligand from the plasma to the tissue compartment containing free, non-specifically bound, and specifically bound ligand, k2 is the efflux constant from the ROI back to plasma ([Cunningham et al., 1991], [Huang et al., 1980]), and bv is a variable blood volume term. VT is then calculated according to the compartmental model equation ([Watabe et al., 2006]):(1) VT=K1/k2.

[4] = set-up: method as in Terry et al., 2010a; conditions: 370 MBq injected; ref Terry et al., 2010a; cited from earlier work
[5] = target: T1, CB1 receptor; assay: [11C]MePPEP PET, VT by classic spectral analysis parametric maps (SA-maps); assay type: in vivo
Protocol: as §1
The resulting parametric maps of VT values were then sampled in the eight selected ROIs.

[6] = target: T1, CB1 receptor; assay: [11C]MePPEP PET, modified standard uptake values (mSUV); assay type: in vivo; conditions: ~30–60 min after injection
Protocol: Modified standard uptake values (mSUVs; [Innis et al., 2007]) for frames 25–31, i.e. from 29 min 50 s to 58 min 50 s after injection, were also derived for the ROIs according to ([Goffin et al., 2011]):(4) activity×weightkg+70kg/2/injecteddose.

[7] = target: T1, CB1 receptor; assay: [11C]MePPEP PET, VT by classic spectral analysis on ROI data (SA-ROIs); assay type: in vivo; set-up: unit not given beside the values
Protocol: as §1
Volumes of distribution (VTs) ([Innis et al., 2007]) for each ROI were obtained from the dynamic images and the metabolite-corrected IFs using spectral analysis (SA) ([Cunningham and Jones, 1993], [Cunningham et al., 1993], [Turkheimer et al., 1994]). The fast frequency boundary was kept at the default value of 0.1 s^− 1. […] Based on previous work with another tracer with relatively slow kinetics ([Hammers et al., 2007a]), we changed this to 0.00063 s^− 1 (log10 = − 3.20) in order to reduce noise.

[8] = system: CB1 receptor; set-up: method as in Terry et al., 2008, Terry et al., 2010b, Yasuno et al., 2008; conditions: determined using CB1 knockout mouse brain, ref Terry et al., 2008, Terry et al., 2010b, Yasuno et al.; cited from earlier work
[9] = target: T1, CB1 receptor; assay: [11C]MePPEP PET, VT by reversible three-compartment model with variable blood volume (4kbv); assay type: in vivo; set-up: unit not given beside the values
Protocol: as §1
K1 and k2 were calculated as for the 2kbv compartmental model described above; in addition, two additional rate constants were estimated to describe transfer relating to the third compartment: k3, which describes the transfer from the free and non-specifically bound compartment to the specifically bound (third) compartment; and k4, which describes the opposite transfer ([Cunningham et al., 1991], [Huang et al., 1980]). Again, a variable blood volume term was also computed. According to compartmental model equations ([Gunn et al., 2001], [Watabe et al., 2006]):(2) VT=K1/k21+k3/k4.

T1 sequence (P21554 whole entry): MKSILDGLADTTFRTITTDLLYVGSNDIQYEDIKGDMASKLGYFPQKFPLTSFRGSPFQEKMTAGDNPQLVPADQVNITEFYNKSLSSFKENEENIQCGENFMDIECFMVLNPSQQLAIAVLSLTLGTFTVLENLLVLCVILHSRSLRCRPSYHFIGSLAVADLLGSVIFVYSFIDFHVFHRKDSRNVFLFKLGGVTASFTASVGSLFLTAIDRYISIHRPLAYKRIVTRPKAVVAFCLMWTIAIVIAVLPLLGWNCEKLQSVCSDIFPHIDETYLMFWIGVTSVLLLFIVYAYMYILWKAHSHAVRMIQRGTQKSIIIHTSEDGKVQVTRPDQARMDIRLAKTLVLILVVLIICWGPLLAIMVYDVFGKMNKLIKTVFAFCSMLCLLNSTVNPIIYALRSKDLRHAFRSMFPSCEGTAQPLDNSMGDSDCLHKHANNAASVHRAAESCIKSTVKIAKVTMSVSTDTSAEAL

For COc1cccc([C@H]2C[C@@H](N[C@H](C)c3ccccc3)C(=O)N2c2ccc(C(F)(F)F)cc2)c1 [[^11C]MePPEP, (3R,5R)-5-(3-methoxy-phenyl)-3-((R)-1-phenyl-ethylamino)-1-(4-trifluoro-methyl-phenyl)-pyrrolidin-2-one], the specific binding [1] is given as greater than 85%, the VT median ([2]; ACG) is given as 9.9 and the “VT from VT(R) plateau, example plot” value ([2]; Hippocampus, single example) is given as 12. It also gave a VT median ([2]; IFG) of 9.9, a VT median ([2]; Pallidum) of 10.3 and a VT median ([2]; Pons) of 4.3. For the same molecule, the VT median ([2]; Thalamus) was 6.5, the VT median ([3]; ACG) was 10.3 and the VT median ([3]; Hippocampus) was 8.0. The VT median ([3]; Pallidum) was 10.8, the VT median ([3]; Pons) was 3.0 and the VT median ([3]; Thalamus) was 5.1. For the same molecule, the “effective dose per scan” value [4] was ~ 1.7 mSv, the VT median ([5]; ACG) was 14.8 and the VT median ([5]; Caudate) was 12.9. For the same molecule, the VT median ([5]; Hippocampus) was 11.5, the VT median ([5]; IFG) was 14.8 and the VT median ([5]; Pallidum) was 15.8. It also gave a VT median ([5]; Pons) of 4.4, a VT median ([5]; Thalamus) of 13.2 and a mSUV median ([6]; ACG) of 3.2. For the same molecule, the mSUV median ([6]; Accumbens) was 3.0, the mSUV median ([6]; Caudate) was 2.9 and the mSUV median ([6]; IFG) was 3.2. The mSUV median ([6]; Pons) was 0.9, the VT median ([7]; ACG) was 14.4 and the VT median ([7]; Accumbens) was 13.9. The VT median ([7]; Hippocampus) was 12.4, the VT median ([7]; IFG) was 13.9 and the VT median ([7]; Pallidum) was 15.7. For the same molecule, the VT median ([7]; Pons) was 6.0, the VT median ([7]; Thalamus) was 9.6 and the specific binding [8] was 65%. It also gave a VT median ([9]; ACG) of 9.0, a VT median ([9]; Accumbens) of 13.6 and a VT median ([9]; Caudate) of 6.2. The VT median ([9]; Hippocampus) was 13.4, the VT median ([9]; Pallidum) was 10.6 and the VT median ([9]; Pons) was 5.3. The VT median ([9]; Thalamus) was 6.1.
